This passage reports IC50 results from BindingDB's records for patent WO2022129953 (HEPTARES THERAPEUTICS LIMITED, 2022).

pIC50: −log10 of the molar value. Several values for one entry are separate records, joined by “and”; a condition that tells them apart may be missing. Identical values can stand only once.

The experiment deals with Replicase polyprotein 1ab (Severe acute respiratory syndrome coronavirus 2, UniProt P0DTD1). Nature of the experiment: SARS-CoV-2 Mpro enzyme assay. As to the method:
The activity of SARS-Cov-2 Mpro was determined in a Fluorescence Resonance Energy Transfer (FRET)-based enzymatic assay using FRET Substrate Dabcyl-KTSAVLQSGFRKM-E(Edans)-Amide. In brief, […] of test compounds (concentrations ranging from […]) was preincubated with […] of 20 nM (final concentration) Mpro enzyme for 30 min at 30 °C in an assay buffer containing 20 mM HEPES, 120 mM NaCI, 0.4 mM EDTA, and 4 mM DTT and 20% glycerol. Reaction was initiated by addition of 10 pL of […] (final concentration) of FRET substrate (Dabcyl-KTSAVLQSGFRKM-E (Edans)-Amide). The reaction was incubated for 1 h and the resulting fluorescent intensity was measured at Ex=360 nm/Em=490 nm at 30 °C using a SPARK 20M plate reader (Tecan). Boceprevir was used a reference standard compound. pICso and pKi were determined using 4PL GraphPad Prism and data were represented as a mean n=2± SD.
As usually defined, the pIC50 is the IC50 on a negative log10 scale, so that one unit is a factor of ten. Low readings indicate a high IC50, high ones a low IC50. With `O=C(/C=C/c1ccc(Cl)cc1Cl)N[C@@H](CC1CC1)C(=O)NC(C[C@@H]1CCNC1=O)C(=O)C(=O)NC1CC1` (stereo partly specified) [WO2022129953, Example 25], the pIC50 is 8.00. The figure for `O=C(/C=C/c1ccc(Cl)cc1F)N[C@@H](CC1CC1)C(=O)NC(C[C@@H]1CCNC1=O)C(=O)C(=O)NC1CC1` (stereo partly specified) [WO2022129953, Example 21] is 8.10 and 7.80. To `NC(=O)C(=O)C(C[C@@H]1CCNC1=O)NC(=O)[C@H](CC1CC1)NC(=O)/C=C/c1ccc(Cl)cc1Cl` (stereo partly specified) [WO2022129953, Example 20] belongs 7.00; to `CC(C)(C)C[C@H](NC(=O)/C=C/c1ccc(Cl)cc1Cl)C(=O)NC(C[C@@H]1CCNC1=O)C(=O)C(=O)C#N` (stereo partly specified) [WO2022129953, Example 9], 6.40.

Compound `NC(=O)C(=O)C(CC1CCCC1)NC(=O)[C@H](CC1CC1)NC(=O)/C=C/c1ccccc1` (stereo partly specified) [WO2022129953, Example 7] showed a negative-log IC50 (pIC50) of 5.10. The compound `CC(C)(C)C[C@H](NC(=O)/C=C/c1ccc(Cl)cc1Cl)C(=O)NC(C[C@@H]1CCNC1=O)C(=O)C(N)=O` (stereo partly specified) [WO2022129953, Example 27] had a pIC50 of 8.10. With `C[C@H](CC(=O)N[C@@H](CC(C)(C)C)C(=O)NC(C[C@@H]1CCNC1=O)C(=O)C(=O)NC1CC1)c1ccccc1` (stereo partly specified) [WO2022129953, Example 13], the pIC50 is 7.80. Take `CC[C@H](CC(=O)N[C@@H](CC(C)(C)C)C(=O)NC(C[C@@H]1CCNC1=O)C(=O)C(=O)NC1CC1)c1ccccc1` (stereo partly specified) [WO2022129953, Example 15]: the pIC50 was 8.00. To `NC(=O)C(=O)C(CC1CC1)NC(=O)[C@H](CC1CC1)NC(=O)/C=C/c1ccccc1` (stereo partly specified) [WO2022129953, Example 6] belongs 5.30; to `CC[C@H](CC(=O)N[C@@H](CC1CC1)C(=O)NC(C[C@@H]1CCNC1=O)C(=O)C(=O)NC1CC1)c1ccccc1` (stereo partly specified) [WO2022129953, Example 33], 7.60; to `CC(C)(C)C[C@H](NC(=O)/C=C/c1ccc(Cl)cc1F)C(=O)NC(C[C@@H]1CCNC1=O)C(=O)C(N)=O` (stereo partly specified) [WO2022129953, Example 22], 8.20. To `CCNC(=O)C(=O)C(C[C@@H]1CCNC1=O)NC(=O)[C@H](CC(C)(C)C)NC(=O)/C=C/c1ccc(Cl)cc1Cl` (stereo partly specified) [WO2022129953, Example 26] belongs 8.00. With `NC(=O)C(=O)C(C[C@@H]1CCNC1=O)NC(=O)[C@H](CC1CC1)NC(=O)OCc1ccccc1` (stereo partly specified) [WO2022129953, Example 3], the pIC50 is 7.60. To `O=C(CCc1ccc(Cl)cc1Cl)N[C@@H](CC1CC1)C(=O)NC(C[C@@H]1CCNC1=O)C(=O)C(=O)NC1CC1` (stereo partly specified) [WO2022129953, Example 30] belongs 7.70; to `CC(C)(C)C[C@H](NC(=O)/C=C/c1ccc(Cl)cc1Cl)C(=O)NC(C[C@@H]1CCNC1=O)C(=O)C(=O)NC1CC1` (stereo partly specified) [WO2022129953, Example 10], 8.20; to `CC(C)C[C@H](NC(=O)/C=C/c1ccc(Cl)cc1F)C(=O)NC(C[C@@H]1CCNC1=O)C(=O)C(N)=O` (stereo partly specified) [WO2022129953, Example 18], 7.89. In turn, `CCNC(=O)C(=O)C(C[C@@H]1CCNC1=O)NC(=O)[C@H](CC1CC1)NC(=O)/C=C/c1ccc(Cl)cc1Cl` (stereo partly specified) [WO2022129953, Example 24] had a pIC50 of 7.89. The figure for `CCNC(=O)C(=O)C(C[C@@H]1CCNC1=O)NC(=O)[C@H](CC(C)(C)C)NC(=O)/C=C/c1ccc(Cl)cc1F` (stereo partly specified) [WO2022129953, Example 23] is 7.89. `O=C(N[C@@H](CC1CC1)C(=O)NC(C[C@@H]1CCNC1=O)C(=O)C(=O)NC1CC1)OCc1ccccc1` (stereo partly specified) [WO2022129953, Example 29] showed a pIC50 of 7.80. The figure for `NC(=O)C(=O)C(C[C@@H]1CCNC1=O)NC(=O)[C@H](CC1CC1)NC(=O)/C=C/c1ccc(Cl)cc1F` (stereo partly specified) [WO2022129953, Example 1] is 7.89.

The compound `NC(=O)/C(=N\O)C(C[C@@H]1CCNC1=O)NC(=O)[C@H](CC1CC1)NC(=O)/C=C/c1ccccc1` (stereo partly specified) [WO2022129953, Example 4] had a negative logarithm of the IC50 (pIC50) of 6.00.

`CC(C)(C)NC(=O)C(=O)C(CC1CCNC1=O)NC(=O)[C@H](CC1CC1)NC(=O)/C=C/c1ccc(Cl)cc1F` (stereo partly specified) [WO2022129953, Example 5] had a pIC50 of 6.30. The figure for `CC[C@@H](CC(=O)N[C@@H](CC1CC1)C(=O)NC(C[C@@H]1CCNC1=O)C(=O)C(=O)NC1CC1)c1ccccc1` (stereo partly specified) [WO2022129953, Example 32] is 7.89; for `CC[C@@H](CC(=O)N[C@@H](CC(C)(C)C)C(=O)NC(C[C@@H]1CCNC1=O)C(=O)C(=O)NC1CC1)c1ccccc1` (stereo partly specified) [WO2022129953, Example 14] it is 8.10; for `CC(C)(C)C[C@H](NC(=O)C[C@H](c1ccccc1)C(F)(F)F)C(=O)NC(C[C@@H]1CCNC1=O)C(=O)C(=O)NC1CC1` (stereo partly specified) [WO2022129953, Example 17] it is 7.89. The figure for `CC(C)(C)C[C@H](NC(=O)C[C@@H](c1ccccc1)C(F)(F)F)C(=O)NC(C[C@@H]1CCNC1=O)C(=O)C(=O)NC1CC1` (stereo partly specified) [WO2022129953, Example 16] is 7.70; for `O=C(/C=C/c1ccc(Cl)cc1F)N[C@@H](CC1CCC1)C(=O)NC(C[C@@H]1CCNC1=O)C(=O)C(=O)NC1CC1` (stereo partly specified) [WO2022129953, Example 31] it is 7.60; for `CC(C)(C)C[C@H](NC(=O)/C=C/c1ccc(Cl)cc1F)C(=O)NC(C[C@@H]1CCNC1=O)C(=O)C(=O)NC1CC1` (stereo partly specified) [WO2022129953, Example 11] it is 8.10.

`C[C@@H](CC(=O)N[C@@H](CC(C)(C)C)C(=O)NC(C[C@@H]1CCNC1=O)C(=O)C(=O)NC1CC1)c1ccccc1` (stereo partly specified) [WO2022129953, Example 12] showed a pIC50 of 7.80. The figure for `CCNC(=O)C(=O)C(C[C@@H]1CCNC1=O)NC(=O)[C@H](CC1CC1)NC(=O)/C=C/c1ccc(Cl)cc1F` (stereo partly specified) [WO2022129953, Example 19] is 7.89; for `NC(=O)C(=O)C(C[C@@H]1CCNC1=O)NC(=O)[C@H](CC1CC1)NC(=O)/C=C/c1ccccc1` (stereo partly specified) [WO2022129953, Example 2] it is 7.70.
